In brackets after ≈: the same amount, converted by molar mass. Activity calls are given as the source filed them. No cut-off for these calls is given here.
Legend:
Staphylococcus aureus [1] = assay: Potency index, ratio of vancomycin MIC to test compound MIC for antibacterial activity against Staphylococcus aureus ATCC 29213; assay type: functional
Staphylococcus aureus [2] = assay: Antibacterial activity against Staphylococcus aureus ATCC 29213 incubated for 18 hrs by serial two-fold dilution method; assay type: functional
Staphylococcus aureus [3] = assay: Potency index, ratio of griseofamine A MIC to test compound MIC for antibacterial activity against Staphylococcus aureus ATCC 29213; assay type: functional
Staphylococcus aureus [4] = assay: Bactericidal activity against Staphylococcus aureus ATCC 29213 incubated for 18 to 24 hrs; assay type: functional; conditions: time 18-24 hrs
[5] = test system: Staphylococcus epidermidis; assay: Drug resistance development in Staphylococcus epidermidis ATCC 12228 assessed as increase in MIC value measured after 8 passages by broth microdilution method; assay type: functional
Staphylococcus aureus [6] = assay: Antibacterial activity against methicillin resistant Staphylococcus aureus ATCC 43300 infected in ICR mouse systemic infection model at 2.5 mg/kg, ip pretreated with bacteria for 30 mins followed by compound addition and measured for 7 days; assay type: functional; conditions: time 7 day
[7] = test system: Staphylococcus epidermidis; assay: Antibacterial activity against Staphylococcus epidermidis ATCC 12228 incubated for 18 hrs by serial two-fold dilution method; assay type: functional
Staphylococcus aureus [8] = assay: Bactericidal activity against methicillin resistant Staphylococcus aureus ATCC 43300 incubated for 18 to 24 hrs; assay type: functional; conditions: time 18-24 hrs
Staphylococcus aureus [9] = assay: Bactericidal activity against methicillin resistant Staphylococcus aureus ATCC 33592 incubated for 18 to 24 hrs; assay type: functional; conditions: time 18-24 hrs
[10] = test system: Staphylococcus epidermidis; assay: Bactericidal activity against Staphylococcus epidermidis ATCC 12228 incubated for 18 to 24 hrs; assay type: functional; conditions: time 18-24 hrs
Staphylococcus aureus [11] = assay: Bactericidal activity against methicillin resistant Staphylococcus aureus ATCC 33592 at 2.5 times MIC measured after 12 hrs by time-kill kinetics assay; assay type: functional, organism-based
Staphylococcus aureus [12] = assay: Bactericidal activity against methicillin resistant Staphylococcus aureus ATCC 33592 at 2.5 times MIC by time-kill kinetics assay; assay type: functional, organism-based
Staphylococcus aureus [13] = assay: Antibacterial activity against methicillin resistant Staphylococcus aureus ATCC 43300 incubated for 18 hrs by serial two-fold dilution method; assay type: functional
Staphylococcus aureus [14] = assay: Antibacterial activity against methicillin resistant Staphylococcus aureus ATCC 33592 incubated for 18 hrs by serial two-fold dilution method; assay type: functional
Staphylococcus aureus [15] = assay: Potency index, ratio of griseofamine A MIC to test compound MIC for antibacterial activity against methicillin resistant Staphylococcus aureus ATCC 33592; assay type: functional
Staphylococcus aureus [16] = assay: Potency index, ratio of griseofamine A MIC to test compound MIC for antibacterial activity against methicillin resistant Staphylococcus aureus ATCC 43300; assay type: functional
Staphylococcus aureus [17] = assay: Potency index, ratio of vancomycin MIC to test compound MIC for antibacterial activity against methicillin resistant Staphylococcus aureus ATCC 33592; assay type: functional
Staphylococcus aureus [18] = assay: Potency index, ratio of vancomycin MIC to test compound MIC for antibacterial activity against methicillin resistant Staphylococcus aureus ATCC 43300; assay type: functional

C/C(O)=C1\C(=O)[C@@H]2Cc3c([nH]c4ccccc34)[C@@H](c3ccc(-c4ccccc4)cc3)N2C1=O
Ratio (Staphylococcus aureus [1]): 4
MIC (Staphylococcus aureus [2]): 0.125 µg/mL (≈ 0.288 µM)
Ratio (Staphylococcus aureus [3]): 64

CN[C@H](CC(C)C)C(=O)N[C@H]1C(=O)N[C@@H](CC(N)=O)C(=O)N[C@H]2C(=O)N[C@H]3C(=O)N[C@H](C(=O)N[C@H](C(=O)O)c4cc(O)cc(O)c4-c4cc3ccc4O)[C@H](O)c3ccc(c(Cl)c3)Oc3cc2cc(c3O[C@@H]2O[C@H](CO)[C@@H](O)[C@H](O)[C@H]2O[C@H]2C[C@](C)(N)[C@H](O)[C@H](C)O2)Oc2ccc(cc2Cl)[C@H]1O [VANCOMYCIN]
MBC (Staphylococcus aureus [4]): 1 µg/mL (≈ 0.69 µM)
MIC [5]: 0.5 µg/mL
Activity (Staphylococcus aureus [6]): 62.5%
MIC [7]: 0.5 µg/mL (≈ 0.345 µM)
MBC (Staphylococcus aureus [8]): 1 µg/mL (≈ 0.69 µM)
MBC (Staphylococcus aureus [9]): 1 µg/mL (≈ 0.69 µM)
MBC [10]: 0.25 µg/mL (≈ 0.173 µM)
Activity (Staphylococcus aureus [11]): inactive
Activity (Staphylococcus aureus [12]): Active

C/C(O)=C1\C(=O)[C@@H]2Cc3c([nH]c4ccccc34)[C@@H](c3ccc(-c4ccc(C)cc4)cc3)N2C1=O
MIC [7]: 0.25 µg/mL (≈ 0.557 µM)
MIC (Staphylococcus aureus [2]): 0.125 µg/mL (≈ 0.279 µM)
MIC (Staphylococcus aureus [13]): 0.125 µg/mL (≈ 0.279 µM)
MIC (Staphylococcus aureus [14]): 0.25 µg/mL (≈ 0.557 µM)

C/C(O)=C1\C(=O)[C@@H]2Cc3c([nH]c4ccccc34)[C@@H](c3ccc(-c4ccc(OC(F)(F)F)cc4)cc3)N2C1=O
MBC (Staphylococcus aureus [4]): 4 µg/mL (≈ 7.71 µM)
Ratio (Staphylococcus aureus [15]): 128
Ratio (Staphylococcus aureus [16]): 128
MIC [7]: 0.125 µg/mL (≈ 0.241 µM)
Ratio (Staphylococcus aureus [17]): 8
MIC (Staphylococcus aureus [2]): 0.063 µg/mL (≈ 0.122 µM)
MIC (Staphylococcus aureus [13]): 0.063 µg/mL (≈ 0.122 µM)
MBC (Staphylococcus aureus [8]): 4 µg/mL (≈ 7.71 µM)
Ratio (Staphylococcus aureus [18]): 8
MBC (Staphylococcus aureus [9]): 4 µg/mL (≈ 7.71 µM)
MBC [10]: 1 µg/mL (≈ 1.93 µM)
MIC (Staphylococcus aureus [14]): 0.063 µg/mL (≈ 0.122 µM)

CC(C)=CCc1cccc2[nH]c3c(c12)C[C@H]1C(=O)/C(=C(\C)O)C(=O)N1[C@@H]3C
MIC [7]: 8 µg/mL (≈ 22 µM)
MIC (Staphylococcus aureus [2]): 8 µg/mL (≈ 22 µM)
MIC (Staphylococcus aureus [13]): 8 µg/mL (≈ 22 µM)
MIC (Staphylococcus aureus [14]): 8 µg/mL (≈ 22 µM)

From ChEMBL document CHEMBL5608208, “Design, synthesis of griseofamine A derivatives and development of potent antibacterial agents against MRSA” (Eur J Med Chem, 2024)
